Where two headings read alike, the source gives them in different places. Where a SMILES comes first, the peptide text is derived from it. The star is where a group is joined. X1 = COc1cc2c3cc1OCCOc1cc4c(cc1OC)Cc1cc5c(OC)cc1Cc1cc(c(OCc6cn(CCOCCOCCOCCOCCOCCOCCOCCOCCNC(=O)COCC(=O)*)nn6)cc1C4)OCCOc1cc(c(cc1OC)Cc1cc(c(OC)cc1C3)OCCO5)C2

Consider three molecules from paper PMC2645951 (Bioconjugate chemistry, 2008).

For series [1] the following is noted: background statement of the introduction, no reference given; cited from earlier work.
A short description of another series: Water solubility. In kind it is physicochemical.
The subject of the next series is HEK cells. The settings on record: over a similar range of concentrations; cited from earlier work.

Consider `COc1cc2c3cc1OCCOc1cc4c(cc1OC)Cc1cc5c(OC)cc1Cc1cc(c(OC)cc1C4)OCCOc1cc(c(cc1OC)C3)Cc1cc(OC)c(cc1C2)OCCO5` [Cryptophane-A], for which, in series [1], the “water solubility (in words)” value is “poor (low micromolar)”.

For the molecule `COc1cc2c3cc1OCCOc1cc4c(cc1OC)Cc1cc5c(OC)cc1Cc1cc(c(OCc6cn(CCOCCOCCOCCOCCOCCOCCOCCOCCNC(=O)COCC(=O)N[C@@H](CS)C(=O)N[C@@H](CCCNC(=N)N)C(=O)NCC(=O)N[C@@H](CC(=O)O)C(=O)N[C@@H](CCCNC(=N)N)C(=O)NCC(=O)N[C@@H](CC(=O)O)C(=O)N[C@@H](CCCNC(=N)N)C(=O)NCC(=O)N[C@@H](CC(=O)O)C(=O)N[C@@H](CCCNC(=N)N)C(=O)NCC(=O)N[C@@H](CC(=O)O)C(=O)O)nn6)cc1C4)OCCOc1cc(c(cc1OC)Cc1cc(c(OC)cc1C3)OCCO5)C2` [III] (X1-CRGDRGDRGDRGD-OH; C-terminus assumed), in the series “Water solubility”, the “water solubility (in words)” value is “limited solubility”.

`c12c3c4c5c1c1c6c7c2c2c8c3c3c9c4c4c%10c5c5c1c1c6c6c%11c7c2c2c7c8c3c3c8c9c4c4c9c%10c5c5c1c1c6c6c%11c2c2c7c3c3c8c4c4c9c5c1c1c6c2c3c41` [fullerene C60]: in the series with HEK cells, the “decrease in viability of HEK cells” value was 10-50%.
